# Data as given in patent EP1383793B1 (priority 2000, dated 2001).
# Residues, ends and D or L forms follow the SMILES beside them. *: point of attachment. Biotin = O=C1N[C@H]2[C@H](CS[C@H]2CCCCC(=O)*)N1
# Legend:
# IGF-1R [1] = target: T1, IGF-1R (Homo sapiens, UniProt P08069); test: Phage ELISA, binding of phage-displayed peptides to IGF-1R; conditions: 405 nm
# T1 construct: Soluble IGF-1R was obtained from R&D Systems; purchased R&D Systems 391-GR/CF
# Description: Figures 1A-10G. Amino acid sequences comprising the motif of Formulas 1 through 10. […] One hundred microliters of this solution was added to an appropriate number of wells in a 96-well microtiter plate (MaxiSorp plates, Nunc) and incubated overnight at 4°C. […] Subsequent steps are the same for pooled and clonal phage. […] Phage resuspended in MPBS were added to duplicate wells (100 µl/well) and incubated at RT for 1 h. […] Incubation was for 1 h at RT, followed by PBS washes as described. […] Phage ELISA. […] The wells were blocked with 200 µl of MPBS for 1.5 h at RT. Phage were added at 100 µl per well. Peptides were added as noted below and allowed to incubate at RT for 3 h. The plates were washed 3 times with PBST. A solution of 1:3000 diluted HRP:Anti-M13 conjugate at 100 µl per well of was added for 1 h. Following a repeat of the washing, 100 µl of ABTS was added for 15-30 min. […] Phage ELISA. […] Phage were added at 100 µl per well. Peptides were added as noted below and allowed to incubate at RT for 3 h. The plates were washed 3X with PBST. A solution of 1:3000 diluted HRP:Anti-M13 Conjugate at 100 µl per well of was added for 1 h. Following a repeat of the washing, 100 µl of ABTS was added for 15-30 min. The OD405 was measured using a SpectraMax 340 Microplate Spectrophotometer.
# adipocytes = test: 3H-glucose uptake into adipocytes (fat cell assay, FFC); assay type: cell-based, Mouse; design: key to Resp.: -2 (antagonist); +2 (agonist); conditions: for ED50: Estimated, not calculated values; for Resp.: Subjective ranking, basal and sub maximal insulin, includes series A
# IR [2] = target: T2, IR (Homo sapiens, UniProt P06213); test: Phage ELISA, binding of phage-displayed peptides to IR; conditions: for Absorbance Values IR: 405 nm
# T2 construct: composed of the extracellular domains of both the α and β chains of the natural receptor; made in house; background b13 names human embryonic kidney 293 cells for the Bass et al. construct
# Description: Amino acid sequences comprising the motif of Formulas 1 through 10. […] Fifty microliters of this solution was added to an appropriate number of wells in a 96-well microtiter plate (MaxiSorp plates, Nunc) and incubated overnight at 4°C. […] To isolate specific binders, each library was panned against a soluble form of the human IR. This IR is composed of the extracellular domains of both the α and β chains of the natural receptor, as well as the constant domain from immunoglobulin Fc, retaining the β-α-α-β structure described above. Because the IR is expressed in a eukaryotic system, disulfide bond formation and glycosylation patterns should mimic the wild-type receptor. The details of this recombinant protein construct are described in Bass et al. (1996). Phage ELISA. […] The wells were blocked with 200 µl of MPBS for 1.5 h at RT. […] Peptides were added as noted below and allowed to incubate at RT for 3 h. The plates were washed 3 times with PBST. A solution of 1:3000 diluted HRP:Anti-M13 conjugate at 100 µl per well of was added for 1 h. Following a repeat of the washing, 100 µl of ABTS was added for 15-30 min. […] Phage ELISA. […] Peptides were added as noted below and allowed to incubate at RT for 3 h. […] A solution of 1:3000 diluted HRP:Anti-M13 Conjugate at 100 µl per well of was added for 1 h. Following a repeat of the washing, 100 µl of ABTS was added for 15-30 min. The OD405 was measured using a SpectraMax 340 Microplate Spectrophotometer.
# Insulin receptor = target: T3, Insulin receptor (Homo sapiens, UniProt P06213); test: BIAcore competition: IR pre-incubated with test substance, injected over immobilised insulin; assay type: binding; conditions: peptide about 40 µM, IR 450 nM
# T3 construct: composed of the extracellular domains of both the α and β chains of the natural receptor; made in house; background b13 names human embryonic kidney 293 cells for the Bass et al. construct
# Description: Flowcell-1 was used for background binding to correct for any non-specific binding. […] The surface was regenerated with 25 mM NaOH. […] Thus, the system was validated for competition studies. […] The amino acid sequences referred to in the tables are identified in Figures 47 and 48, except the 447 and 2A9 sequences, which are shown below. TABLE 9: BIAcore Results-Fusion Proteins Compete for Binding to IR
# IR [3] = target: T2, IR; test: Phage ELISA, competition of phage binding by soluble synthetic peptides, IR-coated wells; conditions: Insulin Receptor
# Description: (§1) Peptide Competition. […] Twenty microliters of the stock synthetic-peptide solution was added to Row A. A series of 20 µl into 100 µl dilutions were performed until Row G. Twenty microliters were discarded from Row G to maintain 100 µl per well. Row H was reserved as no peptide wells. […] The volume was maintained by the addition of 18 µl of the phage solution to Row A.
# (§2) Phage ELISA. […] The wells were blocked with 200 µl of 2% (w/v) Carnation non-fat dry milk in PBS for 1.5 h at RT. Phage were added at 100 µl per well. Peptides were added as noted below and allowed to incubate at RT for 3 h. The plates were washed 3X with PBST. A solution of 1:3000 diluted HRP:Anti-M13 Conjugate at 100 µl per well of was added for 1 h. Following a repeat of the washing, 100 µl of ABTS was added for 15-30 min. The OD405 was measured using a SpectraMax 340 Microplate Spectrophotometer.
# (§3) Peptide Competition. Peptide Competition Curves were produced during the phage ELISA across rows in triplicate. The stock synthetic peptide solution was added to Column 12 so that the total volume totaled 150 µl (additional phage solution was added when necessary). A serial dilution was made by transferring 50 µl from Column 12 into 100 µl in Column 11, 50 µl from Column 11 into 100 µl in Column 10, and continuing the serial dilution until Column 2. Fifty microliters were discarded from Column 2 to maintain 100 µl per well. Column 1 was reserved as no peptide wells.
# (§4) A p53-like peptide that binds to MDM2 was used as a negative control.
# [4] = Precipitate in diluted peptide stock prior to adding to the fat cell assay; solubility under assay conditions; assay type: physicochemical; conditions: diluted stock prior to adding to assay
# IGF-1R [5] = target: T1, IGF-1R; test: Phage ELISA, competition of phage binding by soluble synthetic peptides, IGF-1R-coated wells; conditions: IGF Receptor, H2 Phage
# Description: as §1, §2, §3, §4
# [6] = target: human IGF-1 receptor (HIGF-1R) (Homo sapiens, UniProt P08069); test: 125I-IGF-1 competition binding assay on solubilised purified receptor; conditions: for Ratio: Kd HIGF1R / Kd HIR
# [7] = target: T4, human insulin receptor (HIR) (Homo sapiens, UniProt P06213); test: 125I-insulin competition binding assay on solubilised purified receptor; conditions: read-out: Kd (µM) HIR
# T4 construct: made in house
Compound,Absorbance Values sIGF-1R (IGF-1R [1]),"Comments (dose response, effect at basal insulin) (adipocytes)",ED50 (adipocytes),Resp. (adipocytes),Absorbance Values IR (IR [2]),Comments (precipitation) [4],Ratio [6],also measured
CC[C@H](C)[C@H](NC(=O)[C@H](C)NC(=O)[C@H](CC(=O)O)NC(=O)[C@H](Cc1ccc(O)cc1)NC(=O)[C@H](Cc1ccccc1)NC(=O)[C@H](CC(=O)O)NC(=O)[C@H](CCCCN)NC(=O)[C@H](Cc1ccc(O)cc1)NC(=O)[C@@H](N)CC(=O)O)C(=O)N[C@@H](CC(=O)O)C(=O)N[C@@H](CCC(N)=O)C(=O)N[C@@H](CC(C)C)C(=O)N[C@H](C(=O)N[C@@H](CCCNC(=N)N)C(=O)NCC(=O)N[C@@H](CO)C(=O)N[C@@H](C)C(=O)N[C@@H](CCCNC(=N)N)C(=O)N[C@@H](C)C(=O)NCC(=O)NCC(=O)N[C@H](C(=O)N[C@@H](CCCNC(=N)N)C(=O)N[C@@H](CC(=O)O)C(=O)N[C@@H](CCCCN)C(=O)N[C@@H](CCCCNC(=O)CCCC[C@@H]1SC[C@@H]2NC(=O)N[C@@H]21)C(N)=O)[C@@H](C)O)C(C)C [Clone 20E2] (H-DYKDFYDAIDQLVRGSARAGGTRDKK(Biotin)-NH2; N-terminus assumed),2.15,Biphasic dose response curve (needs repeating),Approx 20 µM,+2,1.01,–,–,–
CC(C)[C@H](NC(=O)[C@H](C)NC(=O)[C@H](CO)NC(=O)[C@@H](NC(=O)[C@H](Cc1ccccc1)NC(=O)[C@@H](NC(=O)[C@@H](NC(=O)[C@H](CC(=O)O)NC(=O)[C@H](CCCCN)NC(=O)[C@H](Cc1ccc(O)cc1)NC(=O)[C@@H](N)CC(=O)O)C(C)C)[C@@H](C)O)[C@@H](C)O)C(=O)N[C@@H](Cc1ccccc1)C(=O)N[C@@H](Cc1c[nH]cn1)C(=O)N[C@@H](CCC(=O)O)C(=O)N[C@@H](CC(N)=O)C(=O)N[C@@H](Cc1ccccc1)C(=O)N[C@@H](Cc1ccc(O)cc1)C(=O)N[C@@H](CC(=O)O)C(=O)N[C@@H](Cc1c[nH]c2ccccc12)C(=O)N[C@@H](Cc1ccccc1)C(=O)N[C@H](C(=O)N[C@@H](CCCNC(=N)N)C(=O)N[C@@H](CCC(N)=O)C(=O)N[C@H](C(=O)N[C@@H](CO)C(=O)N[C@@H](CCCCN)C(=O)N[C@@H](CCCCNC(=O)CCCC[C@@H]1SC[C@@H]2NC(=O)N[C@@H]21)C(N)=O)C(C)C)C(C)C [Clone H2],–,Some response at basal insulin,Approx 20 µM,+2,–,"Insoluble, especially after freeze-thaw",7.2,"Result (RUs) (Insulin receptor; IR alone 128 RU): 34.6 RUs; n (Hill plot) (IR [3]; 20D3 Phage): 1.07; n (Hill plot) (IR [3]; H2 Phage): 0.71; n (Hill plot) (IGF-1R [5]): 1.21; ED50 in the effect assay (FFC) (adipocytes; best peptides, agonists): 20 to 30 µM; binding to IR when expressed as phage (IR [2]): detectable binding"
KSMFVAGSDRWPGYGVLADWLKK [Clone F2],2.08,–,–,–,1.43,–,–,–
CSCC[C@H](NC(=O)[C@@H](NC(=O)[C@H](CO)NC(=O)[C@H](CC(C)C)NC(=O)[C@H](CC(C)C)NC(=O)[C@H](C)NC(=O)[C@H](CO)NC(=O)[C@H](Cc1c[nH]c2ccccc12)NC(=O)[C@@H](N)CCCCN)C(C)C)C(=O)N[C@@H](CC(=O)O)C(=O)N[C@H](C(=O)NCC(=O)N[C@@H](Cc1ccccc1)C(=O)N[C@@H](Cc1ccc(O)cc1)C(=O)N[C@@H](C)C(=O)N[C@@H](Cc1c[nH]c2ccccc12)C(=O)N[C@@H](Cc1ccccc1)C(=O)N[C@@H](CC(=O)O)C(=O)N[C@@H](CC(=O)O)C(=O)N[C@@H](C)C(=O)N[C@H](C(=O)N[C@@H](CCCCN)C(=O)N[C@@H](CCCCNC(=O)CCCC[C@@H]1SC[C@@H]2NC(=O)N[C@@H]21)C(N)=O)C(C)C)[C@@H](C)O [Clone B8] (H-KWSALLSVMDTGFYAWFDDAVKK(Biotin)-NH2; N-terminus assumed),2.55,–,–,0,1.30,–,20,–
CC(C)C[C@H](NC(=O)[C@@H](NC(=O)[C@@H](N)CCCCN)C(C)C)C(=O)N[C@@H](CCC(N)=O)C(=O)N[C@@H](C)C(=O)N[C@@H](CCCNC(=N)N)C(=O)N[C@@H](Cc1c[nH]cn1)C(=O)NCC(=O)N[C@@H](CS)C(=O)N[C@@H](CC(=O)O)C(=O)N[C@@H](CO)C(=O)N[C@H](C(=O)N[C@@H](CO)C(=O)N[C@@H](CC(=O)O)C(=O)N[C@@H](CS)C(=O)N[C@@H](Cc1ccccc1)C(=O)N[C@@H](Cc1ccc(O)cc1)C(=O)N[C@@H](CCC(=O)O)C(=O)N[C@@H](Cc1c[nH]c2ccccc12)C(=O)N[C@@H](Cc1ccccc1)C(=O)N[C@@H](C)C(=O)N[C@@H](CCCCN)C(=O)N[C@@H](CCCCNC(=O)CCCC[C@@H]1SC[C@@H]2NC(=O)N[C@@H]21)C(N)=O)C(C)C [Clone D102] (H-KVLQARHGCDSVSDCFYEWFAKK(Biotin)-NH2; N-terminus assumed),–,–,–,0,–,Precipitates,–,–
CC(C)C[C@H](NC(=O)CNC(=O)[C@H](CC(N)=O)NC(=O)[C@H](Cc1ccc(O)cc1)NC(=O)[C@H](Cc1ccccc1)NC(=O)[C@H](C)NC(=O)[C@H](CCCNC(=N)N)NC(=O)[C@H](CC(=O)O)NC(=O)[C@@H](N)CCCCN)C(=O)N[C@@H](CCCNC(=N)N)C(=O)N[C@@H](CC(=O)O)C(=O)N[C@@H](CC(C)C)C(=O)N[C@H](C(=O)NCC(=O)N[C@@H](C)C(=O)N[C@H](C(=O)N[C@@H](Cc1ccc(O)cc1)C(=O)NCC(=O)N[C@@H](C)C(=O)N[C@@H](Cc1c[nH]c2ccccc12)C(=O)N[C@@H](CC(=O)O)C(=O)N[C@@H](CCCCN)C(=O)N[C@@H](CCCCNC(=O)CCCC[C@@H]1SC[C@@H]2NC(=O)N[C@@H]21)C(N)=O)C(C)C)C(C)C [Clone 20C11] (H-KDRAFYNGLRDLVGAVYGAWDKK(Biotin)-NH2),–,–,–,–,–,–,–,% Binding (Insulin receptor): 38%; Kd [7]: 4.5 µM; Kd [6]: 13 µM
